Experiments:
rice seed = test: Salt tolerance assay: germination of rice seed under high salt environment; assay type: in vivo
From the text: According to a salt tolerance assay, we measured germination of rice seed under high salt environment to determine effects of the natural brassinolide analogues on the salt tolerance of a plant.
The natural brassinolide analogues, BR1, BR2, BR3, BR4, BR5 and BR6, used herein, were those prepared by the method of Example 1. And BR1, BR2, BR3, BR4, BR5 and BR6 were mixed into a mixture of brassinolide analogues (referred to as “BRs”, in which the weight ratio of BR1:BR2:BR3:BR4:BR5:BR6 is 0.4:0.4:0.4:0.4:0.4:98). Respectively the analogues and the mixture were dissolved into 95% (V/V) ethanol solution, and then diluted with pure water to 1 mg/L, 0.1 mg/L, 0.01 mg/L, 0.001 mg/L and 0.0001 mg/L. In addition, pure water was used as a control. Furthermore, NaCl was added to the above solutions containing different concentrations of the natural brassinolide analogues or pure water respectively, and the concentrations of the salt are 300, 400, 500 and 600 mg/L respectively.
After rice seeds were disinfected by using 5% sodium hypochlorite solution treatment, they were rinsed with distilled water until their pH>7, placed into a petri dish in a dark incubator, and cultured at 30° C.±2° C. by using the above solutions containing different concentrations of the natural brassinolide analogues or pure water for observing the germination and calculating germination rates. The results are shown in tables 4-0˜4-4, which indicate that relative to the control, each of the natural brassinolide analogues and the mixture were capable of increasing germination rates of rice under high salt environment so as to enhance the salt tolerance of a plant; and substantially the enhancement of the germination rates was positively correlated to the concentrations of the natural brassinolide analogues and the mixture.

rice = test: Rice leaf bending assay (leaf inclination angle); assay type: in vivo; conditions: for Average angle / Total angle: 48 hr; for Total angle: sum of 20 rice
From the text: According to a rice leaf bending assay, we measured leaf inclination angle of rice to determine effects of the natural brassinolide analogues on the enhancement of plant development. The larger the leaf inclination angle of rice, the more effects on plant development. The detailed assay procedure is as follows:
The natural brassinolide analogues, BR1, BR2, BR3, BR4, BR5 and BR6, used herein, were those prepared by the method of Example 1. And BR1, BR2, BR3, BR4, BR5 and BR6 were mixed into a mixture of brassinolide analogues (referred to as “BRs”, in which the weight ratio of BR1:BR2:BR3:BR4:BR5:BR6 is 0.4:0.4:0.4:0.4:0.4:98). Respectively the analogues and the mixture were dissolved into 95% (V/V) ethanol solution, and then diluted with pure water to 1 mg/L, 0.1 mg/L, 0.01 mg/L, 0.001 mg/L and 0.0001 mg/L. In addition, pure water was used as a control.
After rice seeds were disinfected by using 5% sodium hypochlorite solution treatment, they were rinsed with distilled water until their pH>7, placed into a petri dish in a dark incubator, and cultured by using water at 30° C.±2° C. for 9 days. Then the nine-day-old etiolated seedlings of rice were cut around the center of the base of second leaf to segments with 1 cm leaf and 1 cm leaf sheath. The leaf segments were floated in distilled water, placed in a dark incubator, cultured at 30° C.±2° C. for 24 hr, and then dried by a filter paper. The dried leaf segments were respectively immersed in the above solutions containing different concentrations of the natural brassinolide analogues or pure water, and cultured in a dark incubator at 30° C.±2° C. for 48 hr. Every solution or pure water contained the leaf segments from 20 rice. Then the inclination angle between the second leaf and the leaf sheath of the leaf segments was measured by a protractor.

[1] = sample 0.0001 mg/l, salt 300 mg/l
[2] = sample 0.0001 mg/l, salt 400 mg/l
[3] = sample 0.0001 mg/l, salt 500 mg/l
[4] = sample 0.0001 mg/l, salt 600 mg/l
[5] = sample 0.001 mg/l, salt 300 mg/l
[6] = sample 0.001 mg/l, salt 400 mg/l
[7] = sample 0.001 mg/l, salt 500 mg/l
[8] = sample 0.001 mg/l, salt 600 mg/l
[9] = sample 0.01 mg/l, salt 300 mg/l
[10] = sample 0.01 mg/l, salt 400 mg/l
[11] = sample 0.01 mg/l, salt 500 mg/l
[12] = sample 0.01 mg/l, salt 600 mg/l

| Compound | Germination rate (rice seed; [1]) [%] | Germination rate (rice seed; [2]) [%] | Germination rate (rice seed; [3]) [%] | Germination rate (rice seed; [4]) [%] | Germination rate (rice seed; [5]) [%] | Germination rate (rice seed; [6]) [%] | Germination rate (rice seed; [7]) [%] | Germination rate (rice seed; [8]) [%] | Germination rate (rice seed; [9]) [%] | Germination rate (rice seed; [10]) [%] | Germination rate (rice seed; [11]) [%] | Germination rate (rice seed; [12]) [%] | Germination rate (rice seed; sample 0.1 mg/l, salt 300 mg/l) [%] | Germination rate (rice seed; sample 0.1 mg/l, salt 400 mg/l) [%] | Germination rate (rice seed; sample 0.1 mg/l, salt 500 mg/l) [%] | Germination rate (rice seed; sample 0.1 mg/l, salt 600 mg/l) [%] | Germination rate (rice seed; sample 1 mg/l, salt 300 mg/l) [%] | Germination rate (rice seed; sample 1 mg/l, salt 400 mg/l) [%] | Germination rate (rice seed; sample 1 mg/l, salt 500 mg/l) [%] | Germination rate (rice seed; sample 1 mg/l, salt 600 mg/l) [%] | also measured |
| --- | --- | --- | --- | --- | --- | --- | --- | --- | --- | --- | --- | --- | --- | --- | --- | --- | --- | --- | --- | --- | --- |
| CC(C)[C@H](C)[C@@H](O)[C@H](O)[C@@H](C)[C@H]1CCC2C3COC(=O)C4C[C@H](O)[C@H](O)C[C@]4(C)C3CC[C@@]21C (stereo partly shown) [BR1] | 51 | 48 | 42 | 36 | 53 | 49 | 45 | 37 | 55 | 52 | 47 | 39 | 58 | 52 | 49 | 40 | 62 | 55 | 50 | 42 | Average angle (rice; 0.0001 mg/l): 5.34 degree; Total angle (rice; 0.0001 mg/l): 106.8 degree; Average angle (rice; 0.001 mg/l): 11.27 degree; Total angle (rice; 0.001 mg/l): 225.4 degree; Average angle (rice; 0.01 mg/l): 21.05 degree; Total angle (rice; 0.01 mg/l): 421 degree; Average angle (rice; 0.1 mg/l): 36.25 degree; Total angle (rice; 0.1 mg/l): 725 degree; Average angle (rice; 1 mg/l): 110.75 degree; Total angle (rice; 1 mg/l): 2215 degree; Effects on leaf inclination compared among analogues (rice; in the case of high concentrations): more than those of BR2, BR3 and BR4 |
| CC[C@@H](C(C)C)[C@@H](O)[C@H](O)[C@@H](C)[C@H]1CCC2C3COC(=O)C4C[C@H](O)[C@H](O)C[C@]4(C)C3CC[C@@]21C (stereo partly shown) [BR2] | 45 | 41 | 39 | 36 | 50 | 42 | 40 | 36 | 50 | 51 | 47 | 39 | 50 | 50 | 46 | 38 | 58 | 51 | 46 | 38 | Average angle (rice; 0.0001 mg/l): 4.025 degree; Total angle (rice; 0.0001 mg/l): 80.5 degree; Average angle (rice; 0.001 mg/l): 7.28 degree; Total angle (rice; 0.001 mg/l): 145.6 degree; Average angle (rice; 0.01 mg/l): 13.25 degree; Total angle (rice; 0.01 mg/l): 265 degree; Average angle (rice; 0.1 mg/l): 21.15 degree; Total angle (rice; 0.1 mg/l): 423 degree; Average angle (rice; 1 mg/l): 71.25 degree; Total angle (rice; 1 mg/l): 1425 degree |
